Data reported in ChEMBL document CHEMBL4368855, “Novel tricyclic glycal-based TRIB1 inducers that reprogram LDL metabolism in hepatic cells” (Medchemcomm, 2018).
Values belong to the compound of their own block, whether it stands above or below them. The source made the active and inactive calls. No cut-off for these calls is given here.

What was measured:
[1] = test system: HepG2; assay: Inhibition of PCSK9 secretion in human HepG2 cells by luminex assay; assay type: functional, cell-based
[2] = test system: HepG2; assay: Induction of TRIB1 expression in human HepG2 cells measured after overnight incubation by qRT-PCR analysis; assay type: functional, cell-based
[3] = test system: HepG2; assay: Induction of LDL uptake in human HepG2 cells preincubated for 20 hrs followed by BODIPY-FL-LDL addition and measured after 5 hrs by Hoechst 33342 staining based microscopic analysis; assay type: functional, cell-based
[4] = test system: HepG2; assay: Down regulation of PCSK9 expression in human HepG2 cells after 24 hrs by ELISA; assay type: functional, cell-based
[5] = test system: HepG2; assay: Up regulation of LDLR expression in human HepG2 cells after 24 hrs by ELISA; assay type: functional, cell-based
[6] = test system: HepG2; assay: Induction of LDLR expression in human HepG2 cells by luminex assay; assay type: functional, cell-based
[7] = AUC (infinity) in C57BL/6 mouse liver at 10 mg/kg, ip administered as single dose by mass spectrometry; assay type: ADME, organism-based; design: dose 10 mg/kg, route intraperitoneal, time infinity; conditions: in vivo
[8] = test system: HepG2; assay: Induction of TRIB1 expression in human HepG2 cells assessed as increase in ApoB secretion measured after 24 hrs by ELISA; assay type: functional, cell-based
[9] = target: T1, Mitogen-activated protein kinase; ERK1/ERK2 (Homo sapiens) (UniProt P27361+P28482); assay: Activation of ERK1/2 phosphorylation in human HepG2 cells assessed as ratio of phosphorylated ERK1/2 to total ERK1/2 at 2 uM after 6 hrs by Western blot analysis relative to control; assay type: cell-based
[10] = test system: HepG2; assay: Up regulation of FOS expression in human HepG2 cells at 1 uM measured after 6 hrs by transcriptional profiling analysis; assay type: functional, cell-based
[11] = test system: HepG2; assay: Down regulation of ACAT2 gene expression in human HepG2 cells at 1 uM measured after 24 hrs by transcriptional profiling analysis; assay type: functional, cell-based
[12] = test system: HepG2; assay: Down regulation of MOGAT2 gene expression in human HepG2 cells at 1 uM measured after 24 hrs by transcriptional profiling analysis; assay type: functional, cell-based
[13] = Stability in mouse liver microsomes assessed as parent compound remaining at 1 uM incubated for 60 mins under shaking condition by UPLC/MS analysis; assay type: ADME, Microsome; conditions: read-out: Stability
[14] = test system: HepG2; assay: Down regulation of DGAT1 gene expression in human HepG2 cells at 1 uM measured after 24 hrs by transcriptional profiling analysis; assay type: functional, cell-based
[15] = test system: HepG2; assay: Up regulation of LDLR expression in human HepG2 cells at 1 uM measured after 6 to 24 hrs by transcriptional profiling analysis; assay type: functional, cell-based
[16] = test system: HepG2; assay: Effect on SREBF1 expression in human HepG2 cells at 1 uM measured after 6 to 24 hrs by transcriptional profiling analysis; assay type: functional, cell-based
[17] = target: T1, Mitogen-activated protein kinase; ERK1/ERK2 (Homo sapiens); assay: Activation of ERK1/2 phosphorylation in human HepG2 cells assessed as ratio of phosphorylated ERK1/2 to total ERK1/2 at 2 uM after 30 mins by Western blot analysis relative to control; assay type: cell-based
[18] = Cmax in C57BL/6 mouse plasma at 10 mg/kg, ip administered as single dose by mass spectrometry; assay type: ADME, organism-based; design: dose 10 mg/kg, route intraperitoneal
[19] = test system: HepG2; assay: Up regulation of TRIB1 expression in human HepG2 cells at 1 uM measured after 6 to 24 hrs by transcriptional profiling analysis; assay type: functional, cell-based
[20] = test system: HepG2; assay: Induction of TRIB1 expression in human HepG2 cells assessed as reduction in 13[C3]-D5-glycerol incorporation into C48:2 triglyceride at 2 uM preincubated for 24 hrs followed by 13[C3]-D5-glycerol addition and measured by LC/MS analysis; assay type: functional, cell-based
[21] = test system: HepG2; assay: Up regulation of TRIB1 gene expression in human HepG2 cells measured after 6 hrs by qRT-PCR analysis relative to control; assay type: functional
[22] = test system: HepG2; assay: Up regulation of DUSP1 expression in human HepG2 cells at 1 uM measured after 6 hrs by transcriptional profiling analysis; assay type: functional, cell-based
[23] = test system: HepG2; assay: Up regulation of EGR1 expression in human HepG2 cells at 1 uM measured after 6 hrs by transcriptional profiling analysis; assay type: functional, cell-based
[24] = Apparent volume of distribution in C57BL/6 mouse liver at 10 mg/kg, ip administered as single dose by mass spectrometry; assay type: ADME, organism-based; conditions: in vivo
[25] = test system: HepG2; assay: Up regulation of JUNB expression in human HepG2 cells at 1 uM measured after 6 hrs by transcriptional profiling analysis; assay type: functional, cell-based
[26] = test system: HepG2; assay: Down regulation of LSS gene expression in human HepG2 cells at 1 uM measured after 24 hrs by transcriptional profiling analysis; assay type: functional, cell-based
[27] = test system: HepG2; assay: Up regulation of LDLR expression in human HepG2 cells at 10 uM measured after 6 hrs in presence of JAK inhibitor CP-690550 by qRT-PCR analysis; assay type: functional, cell-based
[28] = test system: HepG2; assay: Down regulation of APOC3 gene expression in human HepG2 cells at 1 uM measured after 24 hrs by transcriptional profiling analysis; assay type: functional, cell-based
[29] = test system: HepG2; assay: Down regulation of HMGCS1 gene expression in human HepG2 cells at 1 uM measured after 24 hrs by transcriptional profiling analysis; assay type: functional, cell-based
[30] = test system: HepG2; assay: Up regulation of ATF3 expression in human HepG2 cells at 1 uM measured after 6 hrs by transcriptional profiling analysis; assay type: functional, cell-based
[31] = test system: HepG2; assay: Up regulation of ZFP36 expression in human HepG2 cells at 1 uM measured after 6 hrs by transcriptional profiling analysis; assay type: functional, cell-based
[32] = Half life in C57BL/6 mouse plasma at 10 mg/kg, ip administered as single dose by mass spectrometry; assay type: ADME, organism-based
[33] = Clearance in C57BL/6 mouse plasma at 10 mg/kg, ip administered as single dose by mass spectrometry; assay type: ADME, organism-based
[34] = test system: HepG2; assay: Down regulation of PCSK9 gene expression in human HepG2 cells measured after 24 hrs by qRT-PCR analysis; assay type: functional, cell-based; conditions: HepG2, 24 h
[35] = test system: HepG2; assay: Up regulation of LDLR gene expression in human HepG2 cells measured after 6 hrs by qRT-PCR analysis relative to control; assay type: functional
[36] = Half life in C57BL/6 mouse liver at 10 mg/kg, ip administered as single dose by mass spectrometry; assay type: ADME, organism-based
[37] = Tmax in C57BL/6 mouse liver at 10 mg/kg, ip administered as single dose by mass spectrometry; assay type: ADME, organism-based
[38] = test system: HepG2; assay: Down regulation of MVK gene expression in human HepG2 cells at 1 uM measured after 24 hrs by transcriptional profiling analysis; assay type: functional, cell-based
[39] = Unbound fraction in C57BL/6 mouse liver at 10 mg/kg, ip administered as single dose by mass spectrometry; assay type: ADME, organism-based
[40] = Cmax in C57BL/6 mouse liver at 10 mg/kg, ip administered as single dose by mass spectrometry; assay type: ADME, organism-based; design: dose 10 mg/kg, route intraperitoneal
[41] = test system: HepG2; assay: Up regulation of JUN expression in human HepG2 cells at 1 uM measured after 6 hrs by transcriptional profiling analysis; assay type: functional, cell-based
[42] = test system: HepG2; assay: Down regulation of HMGCR gene expression in human HepG2 cells at 1 uM measured after 24 hrs by transcriptional profiling analysis; assay type: functional, cell-based
[43] = AUC (infinity) in C57BL/6 mouse plasma at 10 mg/kg, ip administered as single dose by mass spectrometry; assay type: ADME, organism-based; design: dose 10 mg/kg, route intraperitoneal, time infinity; conditions: in vivo
[44] = test system: HepG2; assay: Up regulation of TRIB1 gene expression in human HepG2 cells measured after 6 hrs by qRT-PCR analysis; assay type: functional, cell-based; conditions: HepG2, 6 h
[45] = test system: HepG2; assay: Down regulation of MTTP gene expression in human HepG2 cells at 1 uM measured after 24 hrs by transcriptional profiling analysis; assay type: functional, cell-based
[46] = test system: HepG2; assay: Up regulation of LDLR gene expression in human HepG2 cells measured after 6 hrs by qRT-PCR analysis; assay type: functional, cell-based; conditions: HepG2, 6 h
[47] = Tmax in C57BL/6 mouse plasma at 10 mg/kg, ip administered as single dose by mass spectrometry; assay type: ADME, organism-based
[48] = test system: HepG2; assay: Induction of TRIB1 expression in human HepG2 cells assessed as reduction in 13[C3]-D5-glycerol incorporation into C50:2 triglyceride at 2 uM preincubated for 24 hrs followed by 13[C3]-D5-glycerol addition and measured by LC/MS analysis; assay type: functional, cell-based
[49] = test system: HepG2; assay: Up regulation of PCSK9 gene expression in human HepG2 cells at 2 uM after 24 hrs in presence of atorvastatin by qRT-PCR analysis; assay type: functional, cell-based
[50] = test system: HepG2; assay: Up regulation of LDLR expression in human HepG2 cells at 10 uM measured after 6 hrs in presence of MEK inhibitor U0126 by qRT-PCR analysis; assay type: functional, cell-based
[51] = test system: HepG2; assay: Effect on SREBF2 expression in human HepG2 cells at 1 uM measured after 6 to 24 hrs by transcriptional profiling analysis; assay type: functional, cell-based
[52] = test system: HepG2; assay: Up regulation of LDLR gene expression in human HepG2 cells cultured in cholesterol depleted media at 2.5 uM after 6 hrs by qRT-PCR analysis; assay type: functional, cell-based
[53] = test system: HepG2; assay: Down regulation of PCSK9 gene expression in human HepG2 cells cultured in cholesterol depleted media at 2.5 uM after 24 hrs by qRT-PCR analysis; assay type: functional, cell-based
[54] = test system: HepG2; assay: Up regulation of LDLR gene expression in human HepG2 cells at 2 uM after 6 hrs in presence of simvastatin by qRT-PCR analysis; assay type: functional, cell-based
[55] = Apparent volume of distribution in C57BL/6 mouse plasma at 10 mg/kg, ip administered as single dose by mass spectrometry; assay type: ADME, organism-based; conditions: in vivo

T1 sequence (P27361 whole entry, looked up): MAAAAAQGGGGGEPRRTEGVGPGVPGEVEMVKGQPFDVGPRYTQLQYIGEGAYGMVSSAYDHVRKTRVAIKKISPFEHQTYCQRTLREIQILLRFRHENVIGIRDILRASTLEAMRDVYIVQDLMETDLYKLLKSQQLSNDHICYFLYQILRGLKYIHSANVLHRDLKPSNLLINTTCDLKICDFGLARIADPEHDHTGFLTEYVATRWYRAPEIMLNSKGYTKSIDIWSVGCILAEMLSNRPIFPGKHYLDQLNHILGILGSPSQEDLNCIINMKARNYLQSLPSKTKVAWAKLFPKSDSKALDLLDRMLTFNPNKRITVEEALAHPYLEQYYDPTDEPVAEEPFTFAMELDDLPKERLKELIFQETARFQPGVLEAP
T1 sequence (P28482 whole entry, looked up): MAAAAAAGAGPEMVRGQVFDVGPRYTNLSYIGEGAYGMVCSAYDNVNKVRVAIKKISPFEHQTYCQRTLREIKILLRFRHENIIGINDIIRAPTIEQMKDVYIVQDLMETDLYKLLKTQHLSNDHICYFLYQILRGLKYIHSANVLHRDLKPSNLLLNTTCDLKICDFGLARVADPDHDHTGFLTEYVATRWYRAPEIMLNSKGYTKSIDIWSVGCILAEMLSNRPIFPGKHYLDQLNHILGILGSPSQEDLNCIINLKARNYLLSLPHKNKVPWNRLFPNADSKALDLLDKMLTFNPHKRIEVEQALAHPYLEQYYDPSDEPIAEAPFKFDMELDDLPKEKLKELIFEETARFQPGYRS

- EC50 [2]: 2030 nM
SMILES: CN1C(=O)c2cc(NC(=O)c3ccc(C(F)(F)F)cc3)ccc2OC[C@@H]2O[C@@H](CC(=O)NC3Cc4ccccc4C3)CC[C@@H]21
- inhibition [1]: Active
- Activity [3]: Active
- Activity [4]: Active
- Activity [5]: Active
- Activity [6]: Active

- AUC [7]: 11558 µg/L/h
- fold change (FC) [9]: 2
- remaining at 1 h, 1 µM [13]: 0%
- fold change (FC) [17]: 2
- Cmax [18]: 437 ng/mL
- Vz [24]: 2.81 L/kg
- EC50 [2]: 230 nM
- half-life [32]: 1.63 h
- CL/F [33]: 165 mL/min/kg
- EC50 [34]: 240 nM
- half-life [36]: 2.25 h
- Tmax [37]: 4.8 min
- fraction unbound [39]: 0.01
- Cmax [40]: 4660 ng/mL
- AUC [43]: 1010 µg/L/h
- EC50 [44]: 430 nM
- EC50 [46]: 490 nM
- Tmax [47]: 1 h
- Vz [55]: 23.3 L/kg
SMILES: CN1C(=O)c2cc(NC(=O)c3ccc(C(F)(F)F)cc3)ccc2OC[C@@H]2O[C@H](CC(=O)NC3Cc4ccccc4C3)CC[C@@H]21
- Activity [8]: Active
- Activity [10]: Active
- Activity [11]: Active
- Activity [12]: Active
- Activity [14]: Active
- Activity [15]: Active
- Activity [16]: inactive
- Activity [19]: Active
- Activity [20]: Active
- max activation [21]: 4.7
- Activity [22]: Active
- Activity [23]: Active
- Activity [25]: Active
- Activity [26]: Active
- Activity [27]: Active
- Activity [28]: Active
- Activity [29]: Active
- Activity [30]: Active
- Activity [31]: Active
- Activity [3]: Active
- max activation [35]: 4.8
- Activity [4]: Active
- Activity [5]: Active
- Activity [38]: Active
- Activity [41]: Active
- Activity [42]: Active
- Activity [45]: Active
- Activity [48]: Active
- Activity [49]: inactive
- Activity [50]: inactive
- Activity [51]: inactive
- Activity [52]: Active
- Activity [53]: Active
- Activity [54]: Active
